From PubChem BioAssay AID248 (DTP/NCI, 2004)
Inconclusive results and toxic doses are left out. Rule as the data show it: active = T/C of 150% or more; inactive = T/C below 125%.

System: L1210 leukemia ip in BDF1 mice, survival T/C
Assay: NCI In Vivo Anticancer Drug Screen. Data for tumor model L1210 Leukemia (intraperitoneal) in B6D2F1 (BDF1) mice
Conditions: endpoint: mean survival time, higher = longer survival
Outline: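 Mice bearing the transplanted tumor received compound or vehicle. Survival of the treated group was divided by that of the vehicle-treated control group to give the ratio.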

[1] = dose: 200.0 mg/kg/injection, schedule: Q04DX003 (ip), vehicle: Klucel (hydroxypropylcellulose) (HPC)
[2] = dose: 400.0 mg/kg/injection, schedule: Q04DX003 (ip), vehicle: Klucel (hydroxypropylcellulose) (HPC)
[3] = dose: 400.0 mg/kg/injection, schedule: Q01DX001 (ip), vehicle: saline
[4] = dose: 100.0 mg/kg/injection, schedule: Q01DX001 (ip), vehicle: carboxymethylcellulose (CMC)
[5] = dose: 200.0 mg/kg/injection, schedule: Q01DX001 (ip), vehicle: carboxymethylcellulose (CMC)
[6] = dose: 400.0 mg/kg/injection, schedule: Q01DX001 (ip), vehicle: carboxymethylcellulose (CMC)
[7] = dose: 100.0 mg/kg/injection, schedule: Q01DX001 (ip), vehicle: saline
[8] = dose: 200.0 mg/kg/injection, schedule: Q01DX001 (ip), vehicle: saline
[9] = dose: 100.0 mg/kg/injection, schedule: Q04DX002 (ip), vehicle: saline with Tween-80
[10] = dose: 200.0 mg/kg/injection, schedule: Q04DX002 (ip), vehicle: saline with Tween-80
[11] = dose: 400.0 mg/kg/injection, schedule: Q04DX002 (ip), vehicle: saline with Tween-80
[12] = dose: 100.0 mg/kg/injection, schedule: Q01DX009 (ip), vehicle: saline with Tween-80
[13] = dose: 200.0 mg/kg/injection, schedule: Q01DX009 (ip), vehicle: saline with Tween-80
[14] = dose: 400.0 mg/kg/injection, schedule: Q01DX009 (ip), vehicle: saline with Tween-80

Measured: T/C

COc1ccc(CC(=O)c2ccccc2)cc1
inactive: dose: 100.0 mg/kg/injection, schedule: Q04DX002 (ip), vehicle: saline 92 % of control | dose: 200.0 mg/kg/injection, schedule: Q04DX002 (ip), vehicle: saline 95 % of control | dose: 400.0 mg/kg/injection, schedule: Q04DX002 (ip), vehicle: saline 104 % of control

O=C(O)CCC(NC(=O)c1ccccc1)C(=O)O (configuration not stated)
inactive: dose: 100.0 mg/kg/injection, schedule: Q04DX003 (ip), vehicle: saline 100 % of control | dose: 200.0 mg/kg/injection, schedule: Q04DX003 (ip), vehicle: saline 95 % of control | dose: 400.0 mg/kg/injection, schedule: Q04DX003 (ip), vehicle: saline 95 % of control

CCCCCCCCCCCCCCCCN(C)S(=O)(=O)c1ccc(Cl)c(C(F)(F)F)c1
inactive: dose: 100.0 mg/kg/injection, schedule: Q04DX003 (ip), vehicle: Klucel (hydroxypropylcellulose) (HPC) 98 % of control | [1] 101 % of control | [2] 96 % of control

CCCCNC(=O)Nc1cc(C)c(C)cc1C
inactive: dose: 25.0 mg/kg/injection, schedule: Q01DX009 (ip), vehicle: gum acacia 106 % of control | dose: 50.0 mg/kg/injection, schedule: Q01DX009 (ip), vehicle: gum acacia 96 % of control | dose: 100.0 mg/kg/injection, schedule: Q01DX009 (ip), vehicle: gum acacia 88 % of control | dose: 100.0 mg/kg/injection, schedule: Q04DX003 (ip), vehicle: gum acacia 91 % of control | dose: 200.0 mg/kg/injection, schedule: Q01DX009 (ip), vehicle: gum acacia 92 % of control | dose: 200.0 mg/kg/injection, schedule: Q04DX003 (ip), vehicle: gum acacia 96 % of control | dose: 400.0 mg/kg/injection, schedule: Q04DX003 (ip), vehicle: gum acacia 87 % of control

CN(C)c1ccc(/C=N/NC(=O)c2cccc3ccccc23)c(Cl)c1
inactive: [3] 90 % of control

CN(CC(=O)O)C(=N)N
inactive: [4] 92 % of control | [5] 94 % of control | dose: 250.0 mg/kg/injection, schedule: Q01DX Z (ip), vehicle: saline 94 % of control | [6] 97 % of control | dose: 500.0 mg/kg/injection, schedule: Q01DX Z (ip), vehicle: saline 104 % of control | dose: 1000.0 mg/kg/injection, schedule: Q01DX Z (ip), vehicle: saline 107 % of control | dose: 1500.0 mg/kg/injection, schedule: Q#A X Z (ip), vehicle: water 117 % of control | dose: 2500.0 mg/kg/injection, schedule: Q#A X Z (ip), vehicle: water 95 % of control

CCN(CC)C1=C(Cl)C(=O)C(N(CC)CC)=C(Cl)C1=O
inactive: dose: 25.0 mg/kg/injection, schedule: Q04DX002 (ip), vehicle: gum acacia 95 % of control | dose: 50.0 mg/kg/injection, schedule: Q04DX002 (ip), vehicle: gum acacia 95 % of control

CN(C)CCOC(c1ccccc1)c1ccccc1 (tested in a mixture with another compound)
inactive: [7] 109 % of control | [8] 101 % of control | [3] 95 % of control

O=c1n(C2OC(CO)C(O)C2O)ccc2nccn12 (configuration not stated)
inactive: dose: 2.5 mg/kg/injection, schedule: Q01DX009 (ip), vehicle: saline 98 % of control | dose: 3.13 mg/kg/injection, schedule: Q03HX024 (ip), vehicle: saline 98 % of control | dose: 5.0 mg/kg/injection, schedule: Q01DX009 (ip), vehicle: saline 95 % of control | dose: 6.25 mg/kg/injection, schedule: Q03HX024 (ip), vehicle: saline 96 % of control | dose: 10.0 mg/kg/injection, schedule: Q01DX009 (ip), vehicle: saline 98 % of control | dose: 12.5 mg/kg/injection, schedule: Q03HX024 (ip), vehicle: saline 100 % of control | dose: 20.0 mg/kg/injection, schedule: Q01DX009 (ip), vehicle: saline 106 % of control | dose: 25.0 mg/kg/injection, schedule: Q03HX024 (ip), vehicle: saline 100 % of control | dose: 40.0 mg/kg/injection, schedule: Q01DX009 (ip), vehicle: saline 101 % of control | dose: 50.0 mg/kg/injection, schedule: Q01DX005 (ip), vehicle: saline 95 % of control | dose: 50.0 mg/kg/injection, schedule: Q03HX024 (ip), vehicle: saline 122 % of control | dose: 100.0 mg/kg/injection, schedule: Q01DX005 (ip), vehicle: saline 103 % of control | dose: 200.0 mg/kg/injection, schedule: Q01DX005 (ip), vehicle: saline 92 % of control | dose: 400.0 mg/kg/injection, schedule: Q01DX005 (ip), vehicle: saline 94 % of control

Cc1ccc2c3csc4ccccc4c-3nc2c1
inactive: dose: 6.25 mg/kg/injection, schedule: Q01DX009 (ip), vehicle: saline 101 % of control | dose: 12.5 mg/kg/injection, schedule: Q01DX009 (ip), vehicle: saline 95 % of control | dose: 12.5 mg/kg/injection, schedule: Q04DX003 (ip), vehicle: saline 93 % of control | dose: 25.0 mg/kg/injection, schedule: Q04DX003 (ip), vehicle: saline 92 % of control

CCCCCC(CN(C)C)C(=O)/C=C\c1ccc(Cl)cc1Cl (configuration not stated)
inactive: dose: 12.5 mg/kg/injection, schedule: Q04DX003 (ip), vehicle: alcohol 87 % of control | dose: 25.0 mg/kg/injection, schedule: Q04DX003 (ip), vehicle: alcohol 97 % of control | dose: 50.0 mg/kg/injection, schedule: Q04DX003 (ip), vehicle: alcohol 97 % of control

CC(C)CCCC(C)C1CCC2C3CC(O)C4=CCCCC4(C)C3CCC12C (configuration not stated)
inactive: dose: 9.38 mg/kg/injection, schedule: Q01DX001 (ip), vehicle: other 97 % of control | dose: 18.75 mg/kg/injection, schedule: Q01DX001 (ip), vehicle: other 94 % of control | dose: 37.5 mg/kg/injection, schedule: Q01DX001 (ip), vehicle: other 94 % of control

Cc1ccc(I)cc1NCN1C(=O)c2ccccc2C1=O
inactive: [9] 100 % of control | [10] 107 % of control | [11] 104 % of control

CC(C)(O)C1CC1
inactive: dose: 100.0 mg/kg/injection, schedule: Q01DX005 (ip), vehicle: saline with Tween-80 97 % of control | [12] 88 % of control | [9] 101 % of control | dose: 200.0 mg/kg/injection, schedule: Q01DX005 (ip), vehicle: saline with Tween-80 94 % of control | [13] 94 % of control | [10] 108 % of control | dose: 400.0 mg/kg/injection, schedule: Q01DX005 (ip), vehicle: saline with Tween-80 101 % of control | [14] 91 % of control | [11] 96 % of control

O=S(=O)(Cc1cccc(C(F)(F)F)c1)c1ccccc1-n1cccc1
inactive: [1] 90 % of control | [2] 98 % of control

CC(OC(=O)Nc1ccccc1)C(=O)O (configuration not stated)
inactive: [12] 92 % of control | dose: 100.0 mg/kg/injection, schedule: Q04DX003 (ip), vehicle: saline with Tween-80 96 % of control | [13] 92 % of control | dose: 200.0 mg/kg/injection, schedule: Q04DX003 (ip), vehicle: saline with Tween-80 101 % of control | [14] 95 % of control | dose: 400.0 mg/kg/injection, schedule: Q04DX003 (ip), vehicle: saline with Tween-80 96 % of control

CC(=O)OC1C(C)OC(n2cnc3c(=S)nc[nH]c32)C1OC(C)=O (configuration not stated)
inactive: dose: 50.0 mg/kg/injection, schedule: Q01DX001 (ip), vehicle: carboxymethylcellulose (CMC) 103 % of control | [4] 101 % of control | [5] 108 % of control | [6] 106 % of control

CC(C)(C)c1ccccc1C(N)=O
inactive: dose: 100.0 mg/kg/injection, schedule: Q04DX003 (ip), vehicle: other 101 % of control | dose: 200.0 mg/kg/injection, schedule: Q04DX003 (ip), vehicle: other 109 % of control | dose: 400.0 mg/kg/injection, schedule: Q04DX003 (ip), vehicle: other 91 % of control

CC(C)N1CC(C)(C)N=C1C(C#N)c1cnc2ccccc2n1 (configuration not stated)
inactive: [7] 98 % of control | [8] 94 % of control | [3] 94 % of control

Cc1cc(C)c(NC(=O)C2CCCCC2C(=O)O)c(C)c1 (configuration not stated)
inactive: dose: 100.0 mg/kg/injection, schedule: Q04DX002 (ip), vehicle: Klucel (hydroxypropylcellulose) (HPC) 99 % of control | dose: 200.0 mg/kg/injection, schedule: Q04DX002 (ip), vehicle: Klucel (hydroxypropylcellulose) (HPC) 92 % of control | dose: 400.0 mg/kg/injection, schedule: Q04DX002 (ip), vehicle: Klucel (hydroxypropylcellulose) (HPC) 99 % of control
